Laboratory results from US20050033050A1, “Phthalazinones and the use thereof in order to combat undesirable microorganisms” (priority 2001, published 2005).
Like-named read-outs stand apart in the source and are kept apart here.

Columns and labels:
[1] = logP by HPLC (EEC directive 79/831 Annex V.A8, gradient method); format: physicochemical; details: for log P*: Table 1; for logP*: compounds of formula (IV), Table 2
[2] = test system: Erysiphe graminis f.sp. hordei; assay: Erysiphe test (cucumber)/protective; format: in vivo; details: protective, application rate 500 g/ha, evaluation 7 days after inoculation; 100% = no infection
Protocol: To produce a suitable preparation of active compound, 1 part by weight of active compound is mixed with the stated amounts of solvent and emulsifier, and the concentrate is diluted with water to the desired concentration. To test for protective activity, young plants are sprayed with the preparation of active
compound at the stated application rate.
After the spray coating has dried on, the plants are dusted with spores of Erysiphe graminis f.sp. hordei.
(§1) The plants are placed in a greenhouse at a temperature of about 20° C. and a relative atmospheric humidity of about 80% to promote the development of mildew pustules.
(§2) Evaluation is carried out 7 days after the inoculation. 0% means an efficacy which corresponds to that of the control, whereas an efficacy of 100% means that no infection is observed.

[3] = test system: Erysiphe graminis fsp. tritici; assay: Erysiphe test (wheat)/protective; format: in vivo; details: protective, application rate 500 g/ha, evaluation 7 days after inoculation, 100% = no infection
Protocol: To produce a suitable preparation of active compound, I part by weight of active compound is mixed with the stated amounts of solvent and emulsifier, and the concentrate is diluted with water to the desired concentration.
To test for protective activity, young plants are sprayed with the preparation of active compound at the stated application rate.
After the spray coating has dried on, the plants are dusted with spores of Erysiphe graminis fsp. tritici.
as §1, §2

[4] = gradient method, acetonitrile/0.1% aqueous phosphoric acid, compounds of formula (I)
[5] = gradient method, acetonitrile/0.1% aqueous phosphoric acid, compounds of formula (I), Table 1, read-out: log P*
[6] = preparation example, read-out: HPLC: logP
[7] = gradient method, acetonitrile/0.1% aqueous phosphoric acid

Row | SMILES | log P* [1, 4] | logP* [1, 7] | further results
1 | CCCOc1cc2c(=O)n(CCC)nc(OCCC)c2cc1F [Example 16] | 5.26 | – | –
2 | CCC(C)Oc1nn(C(C)CC)c(=O)c2cc(Br)ccc12 (stereo not shown) [Example 9] | 5.52 | – | –
3 | CCCOc1nn(CCC(C)C)c(=O)c2ccc(Br)cc12 [Example 2, 6-bromo-2-isopentyl-4-propoxy-1 (2H)-phthalazinone] | – | – | chromatographic logP [1, 5]: 5.91; chromatographic logP [1, 6]: 5.91
4 | CCCOc1n[nH]c(=O)c2ccc(Br)cc12 [(IV-3)] | – | 2.71 | –
5 | CCCCOc1nn(CCCC)c(=O)c2cc(Cl)c(Cl)cc12 [Example 11] | 6.71 | – | efficacy [2]: 100%; efficacy [3]: 100%
6 | CCC(C)Oc1n[nH]c(=O)c2ccc(Br)cc12 (stereo not shown) [(IV-4)] | – | 3.12 | –
7 | CCC(C)Oc1n[nH]c(=O)c2cc(Br)ccc12 (stereo not shown) [Example (IV-1), 7-bromo-4-sec-butoxy-1 (2H)-phthalazinone] | – | – | chromatographic logP [1, 6]: 3.01
8 | CC(C)COc1nn(CC(C)C)c(=O)c2cc(Cl)c(Cl)cc12 [Example 13] | 6.46 | – | –
9 | CCCOc1nn(CCC)c(=O)c2ccc(Br)cc12 [Example 4] | 4.8 | – | efficacy [3]: 100%
10 | CCCOc1nn(CCC)c(=O)c2cc(Cl)c(Cl)cc12 [Example 10] | 5.51 | – | efficacy [3]: 100%
11 | CCCOc1cc2c(OCCC)nn(CCC)c(=O)c2cc1F [Example 15] | 4.82 | – | –
12 | CCC(C)Oc1n[nH]c(=O)c2cc(Cl)c(Cl)cc12 (stereo not shown) [(IV-5)] | – | 3.62 | –
13 | CCCOc1nn(CCC)c(=O)c2cc(Br)ccc12 [Example 1, 7-bromo-4-propoxy-2-propyl-1(2H)-phthalazinone] | – | – | chromatographic logP [1, 5]: 4.76; chromatographic logP [1, 6]: 4.76
14 | CCCOc1n[nH]c(=O)c2cc(Br)ccc12 [(IV-2)] | – | 2.66 | –
15 | CCC(C)Oc1nn(C(C)CC)c(=O)c2cc(Cl)c(Cl)cc12 (stereo not shown) [Example 12] | 3.62 | – | –
16 | CC(C)COc1n[nH]c(=O)c2cc(Cl)c(Cl)cc12 [(IV-6)] | – | 3.64 | –
